Measured values published in ChEMBL document CHEMBL5465560, “Selectivity Literature for EUbOPEN Chemogenomic Library” (2024).

Experiments:
[1] = biological target: Tyrosine-protein kinase JAK2 (Homo sapiens, UniProt O60674); experiment: Selectivity interaction (KinomeScan (DiscoverX)) EUB0000045b JAK2
[2] = biological target: T1, Protein kinase C iota type (Homo sapiens) (UniProt P41743); experiment: Selectivity interaction (KinomeScan (DiscoverX)) EUB0000695a PRKCI; conditions: at 100 nM
T1 sequence (whole entry): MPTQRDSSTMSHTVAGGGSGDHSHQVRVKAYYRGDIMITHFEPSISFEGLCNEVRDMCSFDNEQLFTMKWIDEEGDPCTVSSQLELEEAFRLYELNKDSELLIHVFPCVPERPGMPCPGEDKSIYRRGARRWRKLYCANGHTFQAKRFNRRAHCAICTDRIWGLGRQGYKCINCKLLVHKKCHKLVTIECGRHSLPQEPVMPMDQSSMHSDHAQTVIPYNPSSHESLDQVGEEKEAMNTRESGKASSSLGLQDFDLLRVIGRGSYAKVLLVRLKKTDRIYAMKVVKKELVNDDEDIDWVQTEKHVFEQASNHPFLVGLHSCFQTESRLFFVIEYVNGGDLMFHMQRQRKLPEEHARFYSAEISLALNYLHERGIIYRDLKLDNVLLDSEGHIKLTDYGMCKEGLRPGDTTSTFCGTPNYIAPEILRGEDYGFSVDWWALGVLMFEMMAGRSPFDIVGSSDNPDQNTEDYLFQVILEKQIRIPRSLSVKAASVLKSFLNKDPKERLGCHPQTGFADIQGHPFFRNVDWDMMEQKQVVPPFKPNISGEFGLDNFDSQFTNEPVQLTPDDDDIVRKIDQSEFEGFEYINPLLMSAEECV

[3] = biological target: T2, Mitogen-activated protein kinase kinase kinase 3 (Homo sapiens) (UniProt Q99759); experiment: Selectivity interaction (KinomeScan (DiscoverX)) EUB0000607a MAP3K3; conditions: at 10 µM
T2 sequence (whole entry): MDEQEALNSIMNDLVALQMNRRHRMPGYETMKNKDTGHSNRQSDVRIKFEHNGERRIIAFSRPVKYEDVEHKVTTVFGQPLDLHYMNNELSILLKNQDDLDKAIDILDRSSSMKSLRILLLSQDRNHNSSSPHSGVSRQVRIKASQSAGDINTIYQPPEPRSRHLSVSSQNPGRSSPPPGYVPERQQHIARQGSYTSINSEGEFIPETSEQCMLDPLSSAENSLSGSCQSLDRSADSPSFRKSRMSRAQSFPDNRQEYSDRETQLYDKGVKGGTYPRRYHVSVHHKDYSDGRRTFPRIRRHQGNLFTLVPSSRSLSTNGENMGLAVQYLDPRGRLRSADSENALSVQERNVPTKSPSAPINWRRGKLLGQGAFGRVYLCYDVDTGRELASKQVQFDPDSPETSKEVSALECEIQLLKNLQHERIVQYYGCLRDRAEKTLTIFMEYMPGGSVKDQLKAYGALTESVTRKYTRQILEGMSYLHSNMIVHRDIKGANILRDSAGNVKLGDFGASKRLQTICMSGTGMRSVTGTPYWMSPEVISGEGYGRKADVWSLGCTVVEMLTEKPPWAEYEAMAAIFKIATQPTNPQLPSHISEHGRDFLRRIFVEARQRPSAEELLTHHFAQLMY

[4] = biological target: T3, Myosin-IIIb (Homo sapiens) (UniProt Q8WXR4); experiment: Selectivity interaction (KinomeScan (DiscoverX)) EUB0000655a MYO3B; conditions: at 10 µM
T3 sequence (whole entry): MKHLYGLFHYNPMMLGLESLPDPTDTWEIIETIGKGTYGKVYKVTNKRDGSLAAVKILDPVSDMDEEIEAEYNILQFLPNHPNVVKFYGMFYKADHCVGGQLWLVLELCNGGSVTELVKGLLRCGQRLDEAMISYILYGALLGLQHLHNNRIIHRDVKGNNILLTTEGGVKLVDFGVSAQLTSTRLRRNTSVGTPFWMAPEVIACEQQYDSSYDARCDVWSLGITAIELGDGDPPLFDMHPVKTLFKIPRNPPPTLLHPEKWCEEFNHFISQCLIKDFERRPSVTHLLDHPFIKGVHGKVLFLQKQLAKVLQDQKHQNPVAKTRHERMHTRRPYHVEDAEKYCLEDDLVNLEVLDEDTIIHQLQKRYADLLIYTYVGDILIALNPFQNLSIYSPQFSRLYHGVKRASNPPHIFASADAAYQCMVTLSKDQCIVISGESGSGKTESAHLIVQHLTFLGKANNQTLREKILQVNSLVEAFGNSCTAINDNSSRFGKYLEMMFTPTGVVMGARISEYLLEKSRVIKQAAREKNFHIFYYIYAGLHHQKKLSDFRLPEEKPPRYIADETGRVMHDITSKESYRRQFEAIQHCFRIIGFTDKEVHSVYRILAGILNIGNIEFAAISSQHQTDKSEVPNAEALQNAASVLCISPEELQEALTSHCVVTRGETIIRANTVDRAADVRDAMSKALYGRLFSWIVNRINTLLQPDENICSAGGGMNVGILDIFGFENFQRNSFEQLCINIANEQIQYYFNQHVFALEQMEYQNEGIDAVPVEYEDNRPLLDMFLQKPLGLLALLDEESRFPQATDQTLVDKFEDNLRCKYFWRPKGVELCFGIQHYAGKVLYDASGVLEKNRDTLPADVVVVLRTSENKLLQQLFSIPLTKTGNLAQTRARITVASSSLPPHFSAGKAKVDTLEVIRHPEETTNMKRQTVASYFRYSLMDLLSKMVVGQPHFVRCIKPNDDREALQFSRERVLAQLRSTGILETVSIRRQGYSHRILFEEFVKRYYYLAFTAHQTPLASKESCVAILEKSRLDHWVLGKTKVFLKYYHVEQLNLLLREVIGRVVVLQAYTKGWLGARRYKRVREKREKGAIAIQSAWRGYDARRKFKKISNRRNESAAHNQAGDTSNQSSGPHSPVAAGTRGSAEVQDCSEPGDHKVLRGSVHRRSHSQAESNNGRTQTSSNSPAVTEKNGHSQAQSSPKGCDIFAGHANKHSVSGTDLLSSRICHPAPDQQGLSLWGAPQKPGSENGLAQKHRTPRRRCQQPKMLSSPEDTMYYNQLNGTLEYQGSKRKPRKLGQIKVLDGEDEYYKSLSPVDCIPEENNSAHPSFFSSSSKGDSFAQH

[5] = biological target: Proto-oncogene tyrosine-protein kinase ROS (Homo sapiens) (UniProt P08922); experiment: Selectivity interaction (KinomeScan (DiscoverX)) EUB0000092b ROS1; conditions: at 10 µM
Chain of Proto-oncogene tyrosine-protein kinase ROS (Homo sapiens) (P08922 whole entry): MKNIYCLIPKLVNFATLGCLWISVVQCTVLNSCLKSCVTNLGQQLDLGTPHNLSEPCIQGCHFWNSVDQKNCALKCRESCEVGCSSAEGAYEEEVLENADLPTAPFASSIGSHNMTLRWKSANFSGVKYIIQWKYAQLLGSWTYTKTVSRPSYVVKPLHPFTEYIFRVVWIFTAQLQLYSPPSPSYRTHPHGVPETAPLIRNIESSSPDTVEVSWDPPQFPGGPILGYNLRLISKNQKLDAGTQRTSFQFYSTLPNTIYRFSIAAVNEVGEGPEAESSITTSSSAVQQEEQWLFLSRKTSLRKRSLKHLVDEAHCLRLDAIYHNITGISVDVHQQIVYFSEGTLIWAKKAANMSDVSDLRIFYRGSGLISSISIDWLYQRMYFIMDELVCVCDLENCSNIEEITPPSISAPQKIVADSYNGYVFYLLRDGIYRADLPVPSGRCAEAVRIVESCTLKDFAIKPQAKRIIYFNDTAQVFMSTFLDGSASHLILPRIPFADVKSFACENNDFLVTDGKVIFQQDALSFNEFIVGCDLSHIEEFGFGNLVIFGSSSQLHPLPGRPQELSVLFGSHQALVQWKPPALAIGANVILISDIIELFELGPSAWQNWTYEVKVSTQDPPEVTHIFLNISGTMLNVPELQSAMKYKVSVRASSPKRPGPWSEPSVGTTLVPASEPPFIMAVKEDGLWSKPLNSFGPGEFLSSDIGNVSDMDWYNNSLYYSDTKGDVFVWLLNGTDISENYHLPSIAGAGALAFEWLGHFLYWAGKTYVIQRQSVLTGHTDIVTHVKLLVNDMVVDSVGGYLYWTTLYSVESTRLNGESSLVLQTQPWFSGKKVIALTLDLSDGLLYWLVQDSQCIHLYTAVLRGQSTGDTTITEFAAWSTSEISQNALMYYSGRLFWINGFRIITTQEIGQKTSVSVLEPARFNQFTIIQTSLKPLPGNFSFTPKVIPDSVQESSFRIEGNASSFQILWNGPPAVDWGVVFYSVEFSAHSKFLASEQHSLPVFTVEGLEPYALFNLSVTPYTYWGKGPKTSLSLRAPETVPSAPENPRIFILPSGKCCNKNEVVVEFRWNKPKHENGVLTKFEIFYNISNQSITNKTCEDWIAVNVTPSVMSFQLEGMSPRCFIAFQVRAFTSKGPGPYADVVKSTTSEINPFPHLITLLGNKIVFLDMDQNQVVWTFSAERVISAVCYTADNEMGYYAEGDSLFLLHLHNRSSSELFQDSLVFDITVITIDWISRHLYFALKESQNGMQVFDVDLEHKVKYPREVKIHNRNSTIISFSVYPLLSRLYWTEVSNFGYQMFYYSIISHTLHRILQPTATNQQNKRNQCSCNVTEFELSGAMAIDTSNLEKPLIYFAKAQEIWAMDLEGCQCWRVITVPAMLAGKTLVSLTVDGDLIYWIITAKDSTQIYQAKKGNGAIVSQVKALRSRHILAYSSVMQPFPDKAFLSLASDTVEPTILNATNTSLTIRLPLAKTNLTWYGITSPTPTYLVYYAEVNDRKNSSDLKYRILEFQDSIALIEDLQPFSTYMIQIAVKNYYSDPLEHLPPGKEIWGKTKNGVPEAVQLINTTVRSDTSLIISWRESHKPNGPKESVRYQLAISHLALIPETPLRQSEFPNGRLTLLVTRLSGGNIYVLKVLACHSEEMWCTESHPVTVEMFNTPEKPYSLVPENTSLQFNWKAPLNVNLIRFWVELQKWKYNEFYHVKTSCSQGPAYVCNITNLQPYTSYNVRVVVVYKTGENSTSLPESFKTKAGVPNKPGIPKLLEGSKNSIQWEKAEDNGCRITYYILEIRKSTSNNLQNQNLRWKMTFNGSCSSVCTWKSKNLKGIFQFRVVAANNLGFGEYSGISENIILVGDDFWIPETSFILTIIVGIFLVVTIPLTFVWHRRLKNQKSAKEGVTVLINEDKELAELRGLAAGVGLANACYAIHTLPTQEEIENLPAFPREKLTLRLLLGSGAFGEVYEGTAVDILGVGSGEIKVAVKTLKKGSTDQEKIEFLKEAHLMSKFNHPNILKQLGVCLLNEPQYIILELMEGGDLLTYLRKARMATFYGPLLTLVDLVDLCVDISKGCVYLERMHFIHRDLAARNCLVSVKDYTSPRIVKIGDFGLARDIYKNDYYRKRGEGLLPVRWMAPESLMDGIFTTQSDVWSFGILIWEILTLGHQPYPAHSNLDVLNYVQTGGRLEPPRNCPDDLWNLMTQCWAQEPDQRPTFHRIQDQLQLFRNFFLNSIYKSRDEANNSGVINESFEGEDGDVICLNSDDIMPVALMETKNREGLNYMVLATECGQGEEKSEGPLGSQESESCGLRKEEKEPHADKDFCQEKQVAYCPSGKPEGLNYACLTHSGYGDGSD

Chain of Tyrosine-protein kinase JAK2 (O60674 whole entry): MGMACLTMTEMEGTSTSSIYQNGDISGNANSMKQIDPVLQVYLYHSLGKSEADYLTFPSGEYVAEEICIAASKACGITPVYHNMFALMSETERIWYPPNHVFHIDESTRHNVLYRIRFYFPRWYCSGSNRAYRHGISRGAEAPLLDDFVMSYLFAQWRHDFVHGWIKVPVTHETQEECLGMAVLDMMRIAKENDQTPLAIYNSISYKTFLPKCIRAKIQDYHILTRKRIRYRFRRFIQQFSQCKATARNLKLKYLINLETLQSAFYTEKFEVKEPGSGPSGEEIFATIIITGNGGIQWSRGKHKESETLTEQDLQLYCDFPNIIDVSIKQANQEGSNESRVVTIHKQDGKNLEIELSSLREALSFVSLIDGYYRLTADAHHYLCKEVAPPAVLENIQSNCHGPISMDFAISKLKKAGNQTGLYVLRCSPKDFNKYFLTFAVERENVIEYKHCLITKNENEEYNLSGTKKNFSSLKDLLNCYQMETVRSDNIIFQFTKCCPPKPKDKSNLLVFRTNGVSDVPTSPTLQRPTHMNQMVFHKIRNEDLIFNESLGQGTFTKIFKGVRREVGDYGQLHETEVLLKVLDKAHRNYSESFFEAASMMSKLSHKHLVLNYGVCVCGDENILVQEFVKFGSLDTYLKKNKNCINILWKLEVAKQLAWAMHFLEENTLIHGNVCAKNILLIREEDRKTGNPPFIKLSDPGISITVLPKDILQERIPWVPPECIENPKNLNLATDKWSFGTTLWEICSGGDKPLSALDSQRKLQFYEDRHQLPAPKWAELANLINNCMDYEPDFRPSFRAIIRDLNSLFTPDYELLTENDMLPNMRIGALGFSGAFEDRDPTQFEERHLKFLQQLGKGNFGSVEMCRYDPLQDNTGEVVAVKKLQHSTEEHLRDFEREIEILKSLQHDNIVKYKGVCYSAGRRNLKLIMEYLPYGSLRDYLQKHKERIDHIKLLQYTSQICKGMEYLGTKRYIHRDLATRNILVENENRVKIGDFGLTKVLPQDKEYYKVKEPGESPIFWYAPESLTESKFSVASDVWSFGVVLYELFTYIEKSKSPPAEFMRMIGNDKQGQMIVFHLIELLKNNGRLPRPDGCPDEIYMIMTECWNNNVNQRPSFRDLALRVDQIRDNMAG

Q: Which % of control ([1]; at 1 µM) does the source give for `C=CC(=O)Nc1cc(-n2c(=O)ccc3cnc4ccc(-c5ccc(NS(C)(=O)=O)cc5)cc4c32)ccc1C` here?
A: 86%

Q: What about the % of control ([1]; at 10 µM) of the same compound?
A: 100%

Q: Which % of control [2] does the source give for `Cc1cc(F)c(C(=O)Nc2cccc(-c3nncn3C(C)C)n2)cc1-n1cnc(C2CC2)c1` here?
A: 95%

Q: With `CNC(=O)Nc1ccc(-c2nc(N3CC4CCC(C3)O4)c3cnn(C4CCC5(CC4)OCCO5)c3n2)cc1` as the compound, how does the % of control [3] read?
A: 100%

Q: `CN(C)CCOc1ccc(-c2nc(-c3ccncc3)c(-c3ccc4c(c3)CC/C4=N\O)[nH]2)cc1` was tested. Which % of control [4] did it give?
A: 81%

Q: For `CCC(=O)N1CCN(c2ccc(-n3c(=O)ccc4cnc5ccc(-c6cnc7ccccc7c6)cc5c43)cc2C(F)(F)F)CC1`, which % of control [5] is on record?
A: 71%
